Each structure is given as a SMILES string. pIC50: −log10 of the molar value. Where two headings read alike, the source gives them in different places.

Data set [1] concerns the target T1, QPCT (Homo sapiens, UniProt Q16769).
T1 construct: purchased Origine (OriGene) TP700028
The data set can be described thus: Assay A: biochemical QPCT activity assay (MALDI-TOF MS, CD47 peptide substrate). The following applies: 0.5 nM enzyme, 20 μM CD47 peptide substrate; read-out: Inhibition of QPCT: IC50. Here is the method:
(§1) QPCT or QPCTL dependent conversion of N-terminal glutamine to pyroglutamate of CD47 was monitored via MALDI-TOF MS. Test compounds were dissolved in 100% DMSO and serially diluted into clear 1,536-well microtiter plates. Enzymatic reactions were set up in assay buffer containing 20 mM Tris pH 7.5, 0.1 mM TCEP, 0.01% BSA, and 0.001% Tween20. […] The plates were incubated for 10 min in a humidified incubator at 24° C. Subsequently, 2.5 μL of CD47 peptide substrate surrogate (^19[…]^33) was added to each well (final concentration: 10 μM for QPCTL/20 μM for QPCT). The plates were mixed for 30 sec at 1,000 rpm and subsequently incubated for 40 min in a humidified incubator at 24° C. […] The plates were sealed with an adhesive foil, mixed for 30 s at 1,000 rpm and stored at room temperature until preparation of the MALDI target plates. […] QPCT or QPCTL activity was monitored by calculating the ratio between product and internal standard signals followed by normalization to high (100% activity) and low (0% activity) controls. Determination of compound potencies was obtained by fitting the dose-response data to a four-parameter logistical equation.

Data set [2] relates to SIRPα signalling induced by A549 cells. In words: Assay B: SIRPα signalling assay using A549 cells. It counts as cell-based. The following applies: Homo sapiens, read-out: Inhibition of SIRPα signalling induced by A549 cells: IC50. Here is the method:
(§2) Two cell types are independently used: the Raji cell line (lymphoblast-like human cell line derived from B lymphocytes from a Burkitt's lymphoma patient in 1963) and A549 cells (adenocarcinomic human alveolar basal epithelial cells).
(§3) Test compounds were dissolved in 100% DMSO and serially diluted into a white 384-well microtiter cell culture plate (PerkinElmer #60076780 in case of Raji assay; PDL-coated plates Greiner #781945 in case of A549 assay). 5000 Raji cells (ATCC #CC86) or 5000 A549 cells (ATCC #CCL-185) in Assay Complete Cell Plating reagent 30 (DiscoverX 93-0563R30B) were added per well. The assay plate was incubated for 48 h at 37° C., 95% humidity and 5% CO2. 15000 reporter cells (Jurkat PathHunter SIRPαV1, DiscoverX #93-1135C19) were added to each well, and the plate was incubated for 5 h at 37° C., 95% humidity and 5% CO2. Bioassay reagent 1 of the PathHunter Bioassay detection kit (DiscoverX 93-0001) was added to each well of the plate using a multichannel pipette followed by a 15 min incubation at room temperature. Afterwards bioassay reagent 2 was added followed by 60 min incubation at room temperature (incubation in the dark). The analysis of the data was performed using the luminescence signal generated by beta-galactosidase in the PathHunter reporter cell line. The luminescence measurement was done using a Pherastar Multi-Mode Reader. Dose-response curves & IC50 data were calculated with 4-parameter sigmoidal dose response formula.

For data set [3], the system named is SIRPα signalling induced by Raji cells. The data set can be described thus: Assay B: SIRPα signalling assay using Raji cells. It counts as cell-based. The following applies: Homo sapiens, read-out: Inhibition of SIRPα signalling induced by Raji cells: IC50. As for the experimental part:
as §2, §3

Data set [4] addresses T2, QPCTL (Homo sapiens, UniProt Q9NXS2).
T2 construct: made in house
The data set can be described thus: Assay A: biochemical QPCTL activity assay (MALDI-TOF MS, CD47 peptide substrate). The following applies: 0.5 nM enzyme, 10 μM CD47 peptide substrate; read-out: Inhibition of QPCTL: IC50. Here is the method:
as §1

The nature of data set [5]: Assay C: permeability in CACO-2 cells. Type of data set: in vitro ADME. The following applies: human, pH 7.2; for efflux ratio at 2 h: Caco-2, permeability B-A/permeability A-B; for Papp A→B at 2 h: Caco-2, apical to basolateral. Here is the method: Caco-2 cells (1-2×10^5 cells/1 cm^2 area) are seeded on filter inserts (Costar transwell polycarbonate or PET filters, 0.4 µm pore size) and cultured (DMEM) for 10 to 25 days. Compounds are dissolved in appropriate solvent (like DMSO, 1-20 mM stock solutions). […] The transport solution (TL) is applied to the apical or basolateral donor side for measuring A-B or B-A permeability (3 filter replicates), respectively. Samples are collected at the start and end of experiment from the donor and at various time intervals for up to 2 hours also from the receiver side for concentration measurement by HPLC-MS/MS or scintillation counting. Sampled receiver volumes are replaced with fresh receiver solution.
Efflux ratio (ER)=permeability B-A/permeability A-B

The mark [6] stands for this setting: A549 cells, 48 h compound incubation, PathHunter SIRPαV1 reporter cells.
[7] abbreviates: Raji cells, 48 h compound incubation, PathHunter SIRPαV1 reporter cells.

T1 sequence (Q16769 29-361): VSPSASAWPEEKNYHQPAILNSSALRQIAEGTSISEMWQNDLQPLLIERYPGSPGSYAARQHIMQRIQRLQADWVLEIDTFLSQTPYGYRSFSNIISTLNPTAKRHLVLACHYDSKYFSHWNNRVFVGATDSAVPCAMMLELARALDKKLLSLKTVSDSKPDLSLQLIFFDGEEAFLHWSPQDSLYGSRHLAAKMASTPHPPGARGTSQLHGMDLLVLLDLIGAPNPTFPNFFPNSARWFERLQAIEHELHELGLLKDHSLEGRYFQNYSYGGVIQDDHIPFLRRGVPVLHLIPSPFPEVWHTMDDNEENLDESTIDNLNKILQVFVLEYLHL
T2 sequence (Q9NXS2 whole entry): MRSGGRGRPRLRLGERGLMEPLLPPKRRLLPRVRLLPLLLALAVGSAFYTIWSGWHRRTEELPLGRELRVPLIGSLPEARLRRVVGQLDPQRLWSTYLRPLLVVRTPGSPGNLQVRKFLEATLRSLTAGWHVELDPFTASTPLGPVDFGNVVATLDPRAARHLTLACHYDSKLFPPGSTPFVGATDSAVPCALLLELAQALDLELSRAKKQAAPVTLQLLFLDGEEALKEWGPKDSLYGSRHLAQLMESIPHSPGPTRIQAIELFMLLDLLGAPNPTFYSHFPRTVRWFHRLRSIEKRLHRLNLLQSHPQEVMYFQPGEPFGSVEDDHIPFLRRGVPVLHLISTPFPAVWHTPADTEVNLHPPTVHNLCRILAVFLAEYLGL

For orientation: pIC50 means −log10 of the IC50, conventionally taken in molar units. By efflux ratio is commonly meant the permeability from basolateral to apical divided by that in the opposite direction, in the common usage. As a reminder, the Papp A→B is how fast a substance crosses the layer from the apical side. A higher Papp A→B goes with fast passage. Turning to `Cn1cnnc1[C@@H]1CCN(c2c(C#N)cc(C(F)(F)F)nc2-c2ccc(F)nc2)[C@@H](C2CC2)C1` (racemic) [Example 2, (rac)-3-[trans-2-cyclopropyl-4-(4-methyl-4H-1,2,4-triazol-3-yl)piperidin-1-yl]-6′-fluoro-6-(trifluoromethyl)-[2,3′-bipyridine]-4-carbonitrile], the pIC50 in data set [1] is 8.70; in data set [2] (setting [6]), 7.39; in data set [3] (setting [7]), 7.18; in data set [4], 8.70. Also, in data set [5], the efflux ratio at 2 h worked out at 6.1. For the same compound, the apparent permeability from apical to basolateral (Papp A→B) at 2 h in data set [5] was determined as 13 ×10⁻⁶ cm/s.

Take `Cn1cnnc1[C@@H]1CCN(c2c(C#N)cc(C(F)(F)F)nc2-c2cnc3nn(C(C)(C)C)cc3c2)[C@@H](C2CC2)C1` (racemic) [Example 3]: the negative-log IC50 (pIC50) in data set [1] is 9.00; in data set [2] (setting [6]), 7.96; in data set [3] (setting [7]), 7.96; in data set [4], 9.00. In addition, the efflux ratio at 2 h in data set [5] stood at 39.1. The same compound returned a Papp A→B at 2 h in data set [5] of 1.1 ×10⁻⁶ cm/s.

Turning to `C[C@@H]1C[C@H](c2nncn2C)CCN1c1c(C#N)ccnc1-c1ccc(F)nc1` (racemic) [Example 11], the pIC50 in data set [1] was 7.57; in data set [3] (setting [7]), 7.05; in data set [4], 8.52.

Consider `Cn1cnnc1C1CCN(c2c(C#N)cc(C(F)(F)F)nc2-c2ccc(F)nc2)C2(CC2)C1` (racemic) [Example 17], for which the negative logarithm of the IC50 (pIC50) in data set [1] is 7.89; in data set [2] (setting [6]), 7.07; in data set [3] (setting [7]), 6.61; in data set [4], 8.52. Moreover, the efflux ratio at 2 h in data set [5] turned out to be 10.4. In data set [5], this compound came in with an apical-to-basolateral permeability (Papp A→B) at 2 h of 5.1 ×10⁻⁶ cm/s.

With `Cn1cnnc1[C@@H]1CCN(c2c(C#N)cc(C(F)(F)F)nc2-c2ccc(F)nc2)[C@@H](C2CC2)C1` [Example 1, 3-[(2R,4R)-2-cyclopropyl-4-(4-methyl-4H-1,2,4-triazol-3-yl)piperidin-1-yl]-6′-fluoro-6-(trifluoromethyl)-[2,3′-bipyridine]-4-carbonitrile], the negative-log IC50 (pIC50) in data set [1] was 8.70; in data set [2] (setting [6]), 7.57; in data set [3] (setting [7]), 7.57; in data set [4], 9.00. The efflux ratio at 2 h in data set [5] is 4.4. Moreover, in data set [5], the apical-to-basolateral permeability (Papp A→B) at 2 h stood at 17 ×10⁻⁶ cm/s.

On to `Cc1cnnn1C1CCN(c2ncccc2-c2ccc(F)nc2)CC1` [Example 3], for which the pIC50 is 6.32 in data set [1], 6.04 in data set [2] (setting [6]), 5.56 in data set [3] (setting [7]) and 7.28 in data set [4]. Moreover, the efflux ratio at 2 h in data set [5] was found to be 0.8. For the same compound, the apparent permeability from apical to basolateral (Papp A→B) at 2 h in data set [5] was 93 ×10⁻⁶ cm/s.

As to `C[C@H]1C[C@H](c2nncn2C)CCN1c1c(C#N)cc(C(F)(F)F)nc1-c1ccc(F)nc1` [Example 4, 6′-fluoro-3-[(2S,4R)-2-methyl-4-(4-methyl-4H-1,2,4-triazol-3-yl)piperidin-1-yl]-6-(trifluoromethyl)-[2,3′-bipyridine]-4-carbonitrile], the results for the pIC50 in data set [1], in data set [3] (setting [7]) and in data set [4] were 7.13, 6.03 and 8.22, respectively. The efflux ratio at 2 h in data set [5] amounted to 4.6. Moreover, the apical-to-basolateral permeability (Papp A→B) at 2 h in data set [5] turned out to be 15 ×10⁻⁶ cm/s.

Consider `C[C@H]1C[C@H](c2nncn2C)CCN1c1c(C#N)ccnc1-c1ccc(F)nc1` [Example 5, 6′-fluoro-3-[(2S,4R)-2-methyl-4-(4-methyl-4H-1,2,4-triazol-3-yl)piperidin-1-yl]-[2,3′-bipyridine]-4-carbonitrile], for which the pIC50 in data set [1] is 8.70; in data set [2] (setting [6]), 7.24; in data set [3] (setting [7]), 7.32; in data set [4], 9.00. The efflux ratio at 2 h in data set [5] was found to be 5. The apparent permeability from apical to basolateral (Papp A→B) at 2 h in data set [5] turned out to be 3.6 ×10⁻⁶ cm/s.

As for `C[C@H]1C[C@H](c2nncn2C)CCN1c1c(C#N)ccnc1-c1ccnnc1` [Example 6, 3-[(2S,4R)-2-methyl-4-(4-methyl-4H-1,2,4-triazol-3-yl)piperidin-1-yl]-2-(pyridazin-4-yl)pyridine-4-carbonitrile], the pIC50 is 8.52 in data set [1], 6.26 in data set [2] (setting [6]), 6.27 in data set [3] (setting [7]) and 8.70 in data set [4]. Further, the efflux ratio at 2 h in data set [5] is 8.4. Besides, in data set [5], the Papp A→B at 2 h stood at 0.2 ×10⁻⁶ cm/s.

In the case of `Cn1cnnc1[C@@H]1CCN(c2c(C#N)cc(C(F)(F)F)nc2-c2cnc3nn(C(C)(C)C)cc3c2)[C@H](C2CC2)C1` [Example 7, 2-{2-tert-butyl-2H-pyrazolo[3,4-b]pyridin-5-yl}-3-[(2S,4R)-2-cyclopropyl-4-(4-methyl-4H-1,2,4-triazol-3-yl)piperidin-1-yl]-6-(trifluoromethyl)pyridine-4-carbonitrile], the negative-log IC50 (pIC50) is 9.00 in data set [1], 7.92 in data set [2] (setting [6]), 8.05 in data set [3] (setting [7]) and 9.00 in data set [4]. The efflux ratio at 2 h in data set [5] came out at 23.5. In data set [5], this compound yielded an apical-to-basolateral permeability (Papp A→B) at 2 h of 2 ×10⁻⁶ cm/s.

As to `Cn1cnnc1[C@@H]1CCN(c2c(C#N)cc(C(F)(F)F)nc2-c2ccc(F)nc2)[C@H](C2CC2)C1` [Example 8], the pIC50 in data set [1] is 8.22; in data set [2] (setting [6]), 7.33; in data set [3] (setting [7]) it was 7.33; in data set [4], 9.00. Besides, the efflux ratio at 2 h in data set [5] was found to be 3.3. In data set [5], this compound yielded a Papp A→B at 2 h of 22 ×10⁻⁶ cm/s.

As for `CC[C@@H]1C[C@H](c2nncn2C)CCN1c1c(C#N)cc(C(F)(F)F)nc1-c1ccc(F)nc1` [Example 9], the pIC50 in data set [1] was 7.30; in data set [2] (setting [6]), 6.96; in data set [3] (setting [7]) it was 6.49; in data set [4] it was 7.74. In addition, the efflux ratio at 2 h in data set [5] came out at 3.8. The compound further showed an apparent permeability from apical to basolateral (Papp A→B) at 2 h in data set [5] of 22 ×10⁻⁶ cm/s.

For the compound `C[C@@H]1C[C@H](c2nncn2C)CCN1c1c(C#N)cc(C(F)(F)F)nc1-c1ccc(F)nc1` [Example 10, 6′-fluoro-3-[(2R,4R)-2-methyl-4-(4-methyl-4H-1,2,4-triazol-3-yl)piperidin-1-yl]-6-(trifluoromethyl)-[2,3′-bipyridine]-4-carbonitrile], the pIC50 was 7.64 in data set [1], 6.95 in data set [2] (setting [6]), 5.96 in data set [3] (setting [7]) and 8.00 in data set [4]. Also, the efflux ratio at 2 h in data set [5] was 5.8. This compound also registered a Papp A→B at 2 h in data set [5] of 7.8 ×10⁻⁶ cm/s.

Consider `C[C@@H]1C[C@](F)(c2nncn2C)CCN1c1c(C#N)ccnc1-c1ccc(F)nc1` [Example 13], for which the pIC50 in data set [1] was 7.85; in data set [2] (setting [6]), 6.63; in data set [3] (setting [7]), 6.52; in data set [4], 8.22. In addition, in data set [5], the efflux ratio at 2 h is 2.4. In addition, the Papp A→B at 2 h in data set [5] is 22 ×10⁻⁶ cm/s.

Consider `C[C@@H]1C[C@](F)(c2nncn2C)CCN1c1c(C#N)cc(C(F)(F)F)nc1-c1ccc(F)nc1` [Example 14], for which the pIC50 in data set [1] is 7.62; in data set [2] (setting [6]), 6.63; in data set [3] (setting [7]), 6.21; in data set [4], 7.80. In addition, in data set [5], the efflux ratio at 2 h came to 1.2. Moreover, the Papp A→B at 2 h in data set [5] was found to be 58 ×10⁻⁶ cm/s.

With `Cn1cnnc1C1CCN(c2ncccc2-c2ccc(F)nc2)CC1` [SEN177, reference compound], the negative-log IC50 (pIC50) was 6.67 in data set [2] (A549, 48 h) and 5.86 in data set [3] (Raji, 48 h).

Source of the values: US20250066329A1, “PIPERIDINYLPYRIDINYLCARBONITRILE DERIVATIVES AS INHIBITORS OF GLUTAMINYL-PEPTIDE CYCLOTRANSFERASE AND GLUTAMINYL-PEPTIDE CYCLOTRANSFERASE LIKE PROTEIN” (Boehringer Ingelheim International GmbH, priority 2023, published 2025).
